# Patent US6716437B1, “Topical composition and method for enhancing lipid barrier synthesis” (E-L Management Corporation, priority 1993, dated 2004)
# “Also recorded” adds a separate entry of the source.
# Tests used:
# [1] = system: skin barrier; assay: Clinical study: skin barrier function by tape stripping and TEWL; type: in vivo, human; details: twice a day, volar forearm
# Protocol: B. Effect of cafestol on skin barrier function. Ten healthy female subjects, between the ages of 25-45. with normal skin on their forearms are tested in this study. […] They acclimate in the environmental room at 40% relative humidity and 70° F. for 20 minutes before their baseline measurements are recorded. They are then randomly assigned to one of two treatment groups.
# Group I (n=5) receives treatment containing cafestol at 0.1% to use on one arm and a placebo to use on the other arm. Group II (n+5) uses a treatment containing 0.2% cafestol palmitate on one arm and a treatment containing 0.1% cafestol acetate on the other arm. The subjects self-administer the treatment twice a day on the lower part of their volar forearms except on the day of testing.
# A five cm by two cm are is marked using a template on the lower inner forearm and initial water evaporation measurements are taken in three separate spots approximately 1 cm apart in a row. Five cm of the cello-tape is placed on the skin in the outlined area, starting from the top and after one firm stroke in each direction is removed by gently pulling in a downward direction parallel to the skin. The procedure is repeated and water evaporation is measured after every five to ten strips until the barrier is broken, as indicated by a minimum water evaporation of 18 g/sq m hr on one of the three spots. The subjects' transepidermal water loss (TEWL) is monitored on the challenged sites after 1, 2 and 3 days in order to measure the ability of the skin to repair itself. After 5 and 10 days of product treatment, the above procedure is repeated under the same test conditions on an adjacent new site.
# TEWL is measured with the Servo Med Evaporimeter, fitted with a chimney and gauze. The subjects are in a relaxed inclined position, and are not allowed to converse or get excited. TEWL is recorded automatically using the Dia-Stron computer program set at a 30 second data acquisition time and a 15 second plateau.
# B. Barrier strength measurements. Barrier strength is evaluated by challenging the skin with tape stripping and measuring the water evaporation (WE). To describe the experimental data, curve fitting Linear Regression Analysis based on least-square method is performed on each individual's data and the number of tape strippings required to reach a WE of 18 g/sq m/hr is recorded for each visit. The number of tape strippings required to perturb the barrier is a measure of its strength.
# [2] = system: Living skin models; assay: Living skin models: ceramide/lipid production by HPTLC/TLC; type: cell-based
# Protocol: A. Determination of cafestol activity. Living skin models (#1301) are obtained from Advanced Tissue Sciences and treated with cafestol acetate(Sigma)by addition of a stock solution prepared in cell culture medium in a dose-dependent manner from 0.01 mg/ml to 1.0 mg/ml, or in a time-dependent manner at 0.5 mg/ml for up to 7 days. All experiments are conducted with untreated controls. At each dose or time point, the skin models are homogenized and the lipids extracted with chloroform/methanol(2:1), taken to dryness, and resuspended in chloroform. Samples are chromatographed on HPTLC and their lipid composition visualized by degradative charring (Melnick et al., J. Invest. Dermatol 92:231-234, 1989)
# B. Comparison of cafestol activity with coffee bean oil activity. To compare the lipid enhancing activity of cafestol with that of coffee bean oil, living skin models are treated over a period of five days with increasing amounts of cafestol acetate in a range from 0.01 mg/ml to 1.0 mg/ml. A parallel set of living skin squares is also tested with a sample of coffee bean oil (Robeco). At the end of the incubation period, each skin square is homogenized and its lipids extracted in chloroform/methanol (2:1). This is followed by TLC analysis. Ceramides are identified by degradative charring and comparison to ceramide standards. Densitometric analysis of the TLC plate is carried out with an Optimas Bioscan.
# [3] = system: stratum corneum lipids; assay: Clinical study: ceramide levels on human skin by thin layer chromatography; type: in vivo
# Protocol: A. Determination of cafestol activity on lipid production. […] A short clinical study, consisting of five subjects, is then carried out under the same conditions in order to test the ability of cafestol acetate to raise ceramide levels. At zero time, ethanol washes are performed in order to remove stratum corneum lipids from both arms. Cafestol acetate, prepared in ethanol at a concentration of 1 mg/ml, is applied twice a day with a pump spray to the right volar forearm. As a control, ethanol is applied at the corresponding site at the left arm. On day three, stratum corneum lipids are again removed and both zero time and day three lipids from both arms are evaluated by thin layer chromatography as described above.
# [4] = system: Living skin models; assay: Histology of treated living skin models; type: cell-based; details: living skin squares, fixed, sectioned, hematoxylin/eosin
# Protocol: C. Histology. To determine the histological effect of cafestol application to living skin, skin squares are treated as described above; at the end of the incubation period, samples are fixed, sectioned and stained with hematoxylin/eosin.
Compound,increase in barrier strength (number of tape strippings to reach WE of 18 g/sq m/hr) ([1]; after 5 days of treatment),increase in barrier strength (number of tape strippings to reach WE of 18 g/sq m/hr) ([1]; after 10 days of treatment),ceramides as a function of dose (HPTLC) ([2]; 0.01 mg/ml to 1.0 mg/ml),ceramides as a function of time (HPTLC) ([2]; 0.5 mg/ml for up to 7 days),"ceramide I level ([3]; five subjects, 1 mg/ml in ethanol twice a day, volar forearm, day three)","ceramide I level ([3]; initial test, single individual, applied directly to skin over three days)","ceramide IV level ([3]; the subject without ceramide I increase, 1 mg/ml in ethanol twice a day, day three)",stratum corneum (histological analysis) [4],"ceramide production, comparison with coffee bean oil (TLC, densitometric scan) ([2]; five days, 0.01 mg/ml to 1.0 mg/ml)"
CC(=O)OC[C@@]1(O)C[C@@]23CC[C@@H]4c5ccoc5CC[C@@]4(C)[C@@H]2CC[C@@H]1C3 [cafestol acetate],10%,38%,increase in ceramide production with increasing dosage; also recorded: selective increase in ceramides as a function of dose,"presence of ceramides after only one day of application, reaching maximum concentrations after three days",–,–,–,–,–
CCCCCCCCCCCCCCCC(=O)OC[C@@]1(O)C[C@@]23CC[C@@H]4c5ccoc5CC[C@@]4(C)[C@@H]2CC[C@@H]1C3 [cafestol palmitate],8%,43%,–,–,–,–,–,–,–
C[C@@]12CCc3occc3[C@H]1CC[C@@]13C[C@@H](CC[C@H]12)[C@@](O)(CO)C3 [cafestol],–,–,–,–,increased levels of ceramide I in four of the five subjects,elevated,increase in ceramide IV,clear increase in stratum corneum,dose-dependent increase in ceramide production
